Results as given in PubChem BioAssay (NCI).
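How tested: cells in 96-well plates exposed to compound for 48 hours at five concentrations. At the GI50, growth is halved. The concentration for full growth arrest is given as TGI.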

How the values were obtained:
Assay in all cases: growth of human tumour cells (NCI), 48 h
T-47D breast = test system: T-47D breast
SK-MEL-5 melanoma = test system: SK-MEL-5 melanoma
M14 melanoma = test system: M14 melanoma
HS 578T breast = test system: HS 578T breast
RXF 393 renal = test system: RXF 393 renal
HL-60(TB) leukemia = test system: HL-60(TB) leukemia
HCT-116 colon = test system: HCT-116 colon
OVCAR-4 ovarian = test system: OVCAR-4 ovarian
OVCAR-5 ovarian = test system: OVCAR-5 ovarian
UO-31 renal = test system: UO-31 renal
TK-10 renal = test system: TK-10 renal
MDA-N = test system: MDA-N

Structure (SMILES)	TGI (T-47D breast)	TGI (SK-MEL-5 melanoma)	TGI (M14 melanoma)	TGI (HS 578T breast)	TGI (RXF 393 renal)	TGI (HL-60(TB) leukemia)	TGI (HCT-116 colon)	TGI (OVCAR-4 ovarian)	TGI (OVCAR-5 ovarian)	TGI (UO-31 renal)	TGI (TK-10 renal)	TGI (MDA-N)	GI50 (T-47D breast)	GI50 (M14 melanoma)	GI50 (RXF 393 renal)	GI50 (OVCAR-5 ovarian)	GI50 (TK-10 renal)
Cc1cc(S(=O)(=O)NC(=NCCc2ccccc2)NN)c(S)cc1Cl	63 µM	37.9 µM	91.5 µM	59.1 µM	64.7 µM	> 100 µM	71.1 µM	> 100 µM	36.8 µM	56.9 µM	> 100 µM						
COC(=O)C(=O)C(/C(=N/N)C(=O)Nc1ccccc1C(N)=O)c1nc2ccc([N+](=O)[O-])cc2[nH]c1=O (stereo not drawn)		> 100 µM	> 100 µM			> 100 µM	> 100 µM	> 100 µM	> 100 µM	> 100 µM	> 100 µM						
CCNc1nnc(-c2ccccc2Nc2ccccc2-c2nnc(NCC)s2)s1	> 84.8 µM	25.6 µM	40 µM	> 65.7 µM	85.8 µM		> 56 µM	> 100 µM	48.5 µM	21.3 µM	> 57.6 µM	35 µM					
CCN(CC)Cc1cc(Nc2ccnc3ccc4nn(C)nc4c23)ccc1O		29.9 µM	27.9 µM		21.6 µM	> 100 µM	21.5 µM	37 µM	35.7 µM	54 µM	75.6 µM						
COc1ccccc1NC(=O)CC(=O)N1N=C(c2ccccc2)C(N=Nc2ccc(Cl)cc2)C1=O (stereo not drawn)		42 µM	> 100 µM			> 100 µM	> 100 µM	56.6 µM	> 100 µM	52.4 µM	52.3 µM						
CCCCCCCCCCCCC(Br)C(C)=O (stereo not drawn)		> 100 µM	> 100 µM		> 100 µM	> 100 µM	> 100 µM	> 100 µM	> 100 µM	> 100 µM	> 100 µM						
S=C1CC(c2ccccc2)Sc2cc(Cl)ccc2N1 (stereo not drawn)	> 100 µM	29.4 µM	> 100 µM	84 µM	18.1 µM		17.2 µM	28 µM	> 100 µM	> 100 µM	38.9 µM	39.6 µM					
COC(=O)[C@]12CSC[C@H]1C[C@H](c1cccc3ccccc13)N2	> 100 µM	> 100 µM	> 100 µM				> 100 µM		> 100 µM	> 100 µM		> 100 µM					
COc1cc(CNc2cnc3ccc(N)cc3n2)cc(OC)c1OC		> 100 µM	> 100 µM		> 100 µM	> 100 µM	> 100 µM	> 100 µM	> 100 µM	> 100 µM	> 100 µM						
Cc1ccc(-c2nnc3s/c(=C\c4ccc(N(C)C)cc4)c(=O)n23)cc1		> 100 µM	> 100 µM		> 100 µM	> 100 µM	> 100 µM	> 100 µM	> 100 µM	> 100 µM	> 100 µM						
CCCC(=O)OC[n+]1ccc(-c2c(COC(=O)NC(C)C)c(COC(=O)NC(C)C)c3n2CCC3)cc1	> 100 µM	> 100 µM	> 100 µM	> 100 µM	> 100 µM	> 100 µM	> 100 µM	> 100 µM	> 100 µM	> 100 µM	> 100 µM						
O=C(O)CCN(CCCN(CCC(=O)O)CCC(=O)O)CCC(=O)O		> 100 µM	> 100 µM			> 100 µM	> 100 µM	> 100 µM	> 100 µM		> 100 µM						
CN(C)C(=NC#N)N(Cc1ccccc1)Cc1ccccc1		> 100 µM	> 100 µM		> 100 µM	> 100 µM	> 100 µM	> 100 µM	> 100 µM	> 100 µM	> 100 µM						
CC(C)C(Sc1nc(-c2ccccc2)c(-c2ccccc2)[nH]1)c1n[nH]c(=S)n1-c1ccccc1 (stereo not drawn)		31.5 µM	38.2 µM			47.1 µM	> 100 µM	> 100 µM	95 µM	57.2 µM	> 100 µM						
Nc1cc(Cl)ccc1SSc1ccc(Cl)cc1N	45.4 µM	27 µM	21.7 µM	46.7 µM	> 100 µM	> 100 µM	21.7 µM	31.1 µM	30.3 µM	22.1 µM	40.8 µM						
O=c1[nH]c2c(c(=O)[nH]1)C(c1ccc([N+](=O)[O-])cc1)c1c([nH]c(=O)[nH]c1=O)O2		> 100 µM	> 100 µM	> 100 µM	> 100 µM	> 100 µM	> 100 µM	> 100 µM	> 100 µM	> 100 µM	> 100 µM	> 100 µM					
CC1=CC(=O)N(n2c(-c3ccccc3)n[nH]c2=O)C1=O	> 100 µM	> 100 µM	> 100 µM	> 100 µM	> 100 µM	> 100 µM	> 100 µM	> 100 µM	> 100 µM	> 100 µM	> 100 µM						

Structure (SMILES)	TGI (T-47D breast)	TGI (SK-MEL-5 melanoma)	TGI (M14 melanoma)	TGI (HS 578T breast)	TGI (RXF 393 renal)	TGI (HL-60(TB) leukemia)	TGI (HCT-116 colon)	TGI (OVCAR-4 ovarian)	TGI (OVCAR-5 ovarian)	TGI (UO-31 renal)	TGI (TK-10 renal)	TGI (MDA-N)	GI50 (T-47D breast)	GI50 (M14 melanoma)	GI50 (RXF 393 renal)	GI50 (OVCAR-5 ovarian)	GI50 (TK-10 renal)
O=c1[nH]c(=O)n(CCOc2ccc(Cl)cc2)cc1Nc1ccccc1		> 100 µM	> 100 µM	> 100 µM	> 100 µM	> 100 µM	> 100 µM	> 100 µM	> 100 µM	> 100 µM		> 100 µM					
CS(=O)(=O)O[C@H]1[C@H](O)c2ccccc2[C@@H]1N=[N+]=[N-]		> 100 µM	> 100 µM		> 100 µM	> 100 µM	> 100 µM	> 100 µM	> 100 µM	> 100 µM		> 100 µM					
NC(=O)CCC(NC(=O)c1c2ccccc2nc2ccccc12)C(=O)O (stereo not drawn)		> 100 µM	> 100 µM				> 100 µM	> 100 µM	> 100 µM	> 100 µM	> 100 µM	> 100 µM					
C[N+]12C=CC=C1C(N1CCCC1)c1scc(-c3ccc(F)cc3)c12 (stereo not drawn)	80.5 µM	36.2 µM	> 100 µM	> 100 µM	> 100 µM		> 100 µM		> 100 µM	> 100 µM		> 100 µM					
CC(=O)NNc1nc(C)c(C(=O)/C=C/c2ccc(Cl)c(Cl)c2)s1		> 100 µM			> 100 µM	> 100 µM			> 100 µM	> 100 µM	> 100 µM						
COC(=O)Cn1c(=O)oc2nc(-c3ccccc3)cc(C(F)(F)F)c21	> 100 µM	61.9 µM	> 100 µM		> 100 µM		> 100 µM	> 100 µM	> 100 µM	> 100 µM	> 100 µM	> 100 µM					
C/C=C\C(CC(=O)OC)CC(=O)N(CCC1CN(S(=O)(=O)C(F)(F)F)c2ccccc21)Cc1ccc(OC)cc1OC (stereo not drawn)	> 100 µM	> 100 µM	> 100 µM		> 100 µM		> 100 µM	> 100 µM	> 100 µM	> 100 µM	> 100 µM	> 100 µM					
NC(N)=NS(=O)(=O)c1ccc(NC(=O)c2cccc3c(N)c4ccccc4nc23)cc1		> 100 µM	> 100 µM		> 100 µM		> 100 µM	> 100 µM	> 100 µM	> 100 µM	> 100 µM						
COc1cc(C2c3cc4c(cc3OC(NCCO)C2C)OCO4)cc(OC)c1O (stereo not drawn)	> 100 µM	56.5 µM	> 100 µM		> 100 µM		> 100 µM	> 100 µM	> 100 µM	> 100 µM	> 100 µM	4.56 µM					
NC(CCCCNCc1ccccc1)C(=O)O (stereo not drawn)		> 100 µM	> 100 µM			> 100 µM	> 100 µM	> 100 µM	> 100 µM	> 100 µM	> 100 µM						
C=C(Cl)C(C)(Cl)CCC(Cl)C(C)C (stereo not drawn)		> 100 µM	> 100 µM	> 100 µM	> 100 µM	> 100 µM	> 100 µM	> 100 µM	> 100 µM	> 100 µM	> 100 µM	> 100 µM					
Cc1nc2c3c(ccc2[nH]c1=O)C(=O)c1ccccc1C3=O		> 100 µM	> 100 µM		> 100 µM	> 100 µM	> 100 µM	> 100 µM	> 100 µM	> 100 µM	> 100 µM						
COc1ccc(/C=C/C(=O)c2sc(-c3cccnc3)nc2C)cc1		> 100 µM			90.8 µM	48.1 µM			> 100 µM	> 100 µM	> 100 µM						
CCCCC1(O)CC2CC1C(C)C2(C)C (stereo not drawn)		> 100 µM	> 100 µM	> 100 µM	> 100 µM	64.6 µM	> 100 µM	> 100 µM	> 100 µM	> 100 µM	> 100 µM	> 100 µM					
C=C1c2nc3ccccc3n2C=C(c2ccc(Cl)cc2)N1c1ccc(OCCN2CCCCC2)cc1	> 100 µM	> 45 µM	> 100 µM		> 100 µM	45 µM	> 45 µM	> 45 µM	> 100 µM	> 45 µM	> 100 µM	45 µM	> 100 µM	> 100 µM	> 100 µM	> 100 µM	> 100 µM
C/C(=N/O)c1sc(-c2nc(C)c(/C(C)=N\O)s2)nc1C		> 100 µM	> 100 µM		> 100 µM	> 100 µM	> 100 µM	> 100 µM		> 100 µM							
